Laboratory results from PubChem BioAssay (NCI).
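Each compound was tested at five concentrations against cells in 96-well plates for 48 hours. Abbreviation: GI50, concentration required for 50% inhibition of growth. TGI is the concentration that stops growth completely.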

How the values were obtained:
Assay in all cases: NCI-60 cell line screen, 48 h
[1] = system: RPMI-8226 leukemia
[2] = system: OVCAR-5 ovarian
[3] = system: HT29 colon
[4] = system: SF-295 CNS
[5] = system: K-562 leukemia
[6] = system: SK-OV-3 ovarian
[7] = system: OVCAR-4 ovarian
[8] = system: OVCAR-3 ovarian
[9] = system: MALME-3M melanoma
[10] = system: OVCAR-8 ovarian

Row | Structure (SMILES) | TGI [1] [µM] | TGI [2] [µM] | TGI [3] [µM] | TGI [4] [µM] | TGI [5] [µM] | TGI [6] [µM] | TGI [7] [µM] | TGI [8] [µM] | TGI [9] [µM] | TGI [10] [µM] | GI50 [1] [µM] | GI50 [2] [µM] | GI50 [10] [µM] | GI50 [3] [µM] | GI50 [4] [µM] | GI50 [5] [µM] | GI50 [6] [µM] | GI50 [7] [µM] | GI50 [8] [µM] | GI50 [9] [µM]
1 | CC1(C)CCCC2(C)[C@@H]1CC[C@]13C[C@](C)(CC[C@@H]21)[C@@H]3CO (some centres not stated) | > 100 | > 100 | > 100 | > 100 | > 100 | > 100 | > 100 | > 100 | > 100 | – | – | – | – | – | – | – | – | – | – | –
2 | CCOC(=O)c1csc(NC(=O)CCN2CCOCC2)n1 | > 100 | > 100 | > 100 | > 100 | > 100 | > 100 | > 100 | > 100 | > 100 | 87.2 | – | – | – | – | – | – | – | – | – | –
3 | COc1ccc2c(c1)C(=O)/C(=C/c1ccccc1)C2 | > 100 | > 100 | > 100 | > 100 | > 100 | > 100 | > 100 | > 100 | > 100 | > 100 | – | – | – | – | – | – | – | – | – | –
4 | CCNc1nc2c(=O)n(C)c(=O)n(C)c2s1 | > 100 | > 100 | > 100 | > 100 | > 100 | > 100 | > 100 | > 100 | > 100 | > 100 | – | – | – | – | – | – | – | – | – | –
5 | C=C1CC2(C)CCC(OC(=O)C3(C)OC3C)C(C)(OC(C)=O)C2CC1=C(C)C (configuration not stated) | > 100 | > 100 | > 100 | > 100 | > 100 | > 100 | > 100 | > 100 | > 100 | > 100 | – | – | – | – | – | – | – | – | – | –
6 | CC12CCC3C(CCC4(O)C=CCCC34C=O)C1(O)CC(O)C2c1ccc(=O)oc1 (configuration not stated) | 0.839 | 0.638 | 1.71 | 0.149 | 1.29 | 0.248 | 0.102 | 0.0939 | 0.0877 | 0.193 | – | – | – | – | – | – | – | – | – | –
7 | O=c1n(Cc2ccccc2)c2ccccc2n1CC1CS1 (configuration not stated) | > 100 | > 100 | – | > 100 | > 100 | > 100 | > 100 | > 100 | > 100 | > 100 | – | – | – | – | – | – | – | – | – | –
8 | COc1cc(CN(C)N2C(=O)c3cccc4cc([N+](=O)[O-])cc(c34)C2=O)cc(OC)c1OC | > 100 | > 100 | > 100 | > 100 | > 100 | > 100 | > 100 | > 100 | > 100 | > 100 | – | – | – | – | – | – | – | – | – | –
9 | O=C1CNC(=O)N1 | > 1120 | > 1120 | > 1120 | > 1120 | > 630 | > 1120 | > 1120 | > 1120 | > 1120 | > 1120 | – | – | – | – | – | – | – | – | – | –
10 | O=C(NC/C=C/CO)c1ccccc1 | > 100 | > 100 | > 100 | > 100 | > 100 | > 100 | > 100 | > 100 | > 100 | > 100 | – | – | – | – | – | – | – | – | – | –
11 | Cc1cc(C)c(S(=O)(=O)N(CCCCCCN)OCCCON(CCCCCCN)S(=O)(=O)c2c(C)cc(C)cc2C)c(C)c1 | – | 2.72 | 3.05 | 3.41 | > 100 | 3.37 | 3.38 | 3.34 | 3.66 | 3.34 | – | – | – | – | – | – | – | – | – | –
12 | ClCc1nnc2n1-c1ccc(Cl)cc1SC2 | > 100 | 24.6 | 10.2 | 15.5 | > 100 | 12.6 | 12.6 | 8.09 | 15.8 | > 39.5 | – | – | – | – | – | – | – | – | – | –
13 | Fc1cc(C2=Nn3c(nnc3-c3cc(F)c(Cl)cc3Cl)SC2)c(Cl)cc1Cl | 35 | > 100 | 56.3 | 51.9 | > 100 | > 100 | > 100 | 46.9 | 66.7 | 97.3 | 6 | 56.8 | 26 | 20.1 | 20.3 | 17.8 | 29.2 | 34.5 | 11.5 | 28.4
